Consider one compound from patent US11579088B2, “Device and method for imaging shortwave infrared fluorescence” (Massachusetts Institute of Technology, priority 2016, dated 2023).

The data set deals with liver. The experiment in a line: Detection of indocyanine green across SWIR wavelengths in vivo (hepatobiliary clearance). The conditions noted are these: mouse, intravenous 1.7 mg/kg, SWIR fluorescence detection. As for the experimental part:
When injected into a living system, indocyanine green is metabolized by the liver and excreted by the liver and bile ducts by a process called hepatobiliary clearance. This process was observed, noninvasively, by injecting a solution of indocyanine green intravenously into a mouse and using an SWIR imaging system as described herein to observe the fluorescence of indocyanine green. The dye was injected at a dose of 1.7 mg/kg which is below the maximum recommended dose of indocyanine green in humans. […] Despite the fact that 1500 nm is far from the peak emission of indocyanine green, there is sufficient emission intensity from the tail of the emission peak in this wavelength region to obtain a SWIR fluorescence image. Separately, hepatobiliary excretion of ICG into the small intestine in a mouse was also imaged using a near video rate imaging of 19.7 frames per second using a 1200 nm long-pass filter, which enabled capturing the peristaltic movements of the small intestine. Although the frame rate was slower, 2.0 frames per second, it was possible to image the ICG clearance using a 1500 nm long-pass filter, capturing wavelengths between roughly 1500 and 1620 nm.

Regarding `CC1(C)C(/C=C/C=C/C=C/C=C2\N(CCCCS(=O)(=O)O)c3ccc4ccccc4c3C2(C)C)=[N+](CCCCS(=O)(=O)[O-])c2ccc3ccccc3c21` [ICG, indocyanine green], the “accumulation in the liver” value was “observed”.
